In US8192962B2, “Processes for detecting toxic substances” (Daikin Industries, Ltd., priority 2001, dated 2012):

Test system: Mitochondria-located protein genes
Experiment: DNA chip mRNA expression in yeast, mitochondria-located protein genes (Table 2)
Type: cell-based, Saccharomyces cerevisiae S288C
Conditions: cells incubated two hours with the chemical substance
Procedure, shortened: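 Chemical exposure: 2 h, log-phase S. cerevisiae S288C, YPD, 25° C., dose set to inhibit growth without death. Profiling: mRNA labeled by reverse transcription with Cy3- or Cy5-dUTP, hybridized to whole-genome array. Output: fluorescence ratio against untreated culture.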

Measured: The level of expressed mRNA in the presence of chemical substance/The level of expressed mRNA in the absence of chemical substance

CN(C)C(=S)SSC(=S)N(C)C [(10), Tetramethylthiuram disulfide]
13.3: yeast gene YDR258C
0.9: yeast gene YBL030C | yeast gene YBR282W | yeast gene YDL067C | yeast gene YDR377W | yeast gene YGR082W | yeast gene YLR038C | yeast gene YLR395C
1.3: yeast gene YBR003W | yeast gene YBR221C | yeast gene YER178W | yeast gene YGL191W | yeast gene YJR121W | yeast gene YLR348C | yeast gene YMR152W | yeast gene YPR037C
1.4: yeast gene YBR122C | yeast gene YCR046C | yeast gene YDR231C | yeast gene YGL018C | yeast gene YGR062C | yeast gene YJL096W | yeast gene YJL133W | yeast gene YJL180C | yeast gene YKL194C | yeast gene YOL096C
5.9: yeast gene YKL142W
0.6: yeast gene YDR529C | yeast gene YEL024W | yeast gene YGL187C | yeast gene YNL256W
2.1: yeast gene YCL057W
1.6: yeast gene YBR091C | yeast gene YBR185C | yeast gene YDR298C | yeast gene YDR347W | yeast gene YMR035W
5.8: yeast gene YPL262W
0.7: yeast gene YBL099W | yeast gene YGR174C | yeast gene YJR077C
3.0: yeast gene YJR045C
0.5: yeast gene YKL141W | yeast gene YOR176W
1.0: yeast gene YNL055C | yeast gene YOR037W
2.9: yeast gene YFL016C | yeast gene YIL155C
2.4: yeast gene YGR008C | yeast gene YHR008C | yeast gene YKR066C
2.2: yeast gene YAL039C | yeast gene YJL102W | yeast gene YKL003C | yeast gene YLR304C | yeast gene YML129C
2.7: yeast gene YDL198C
1.7: yeast gene YKL148C | yeast gene YOR130C | yeast gene YPR024W
2.3: yeast gene YPR134W
2.0: yeast gene YGR028W | yeast gene YNL104C | yeast gene YOR316C
2.5: yeast gene YMR089C
2.6: yeast gene YLR259C | yeast gene YMR023C | yeast gene YOR020C | yeast gene YOR100C
1.9: yeast gene YPR047W
0.8: yeast gene YDL181W | yeast gene YDR079W | yeast gene YDR178W | yeast gene YLL041C | yeast gene YMR267W | yeast gene YOR187W | yeast gene YPL134C
2.8: yeast gene YPL135W
1.1: yeast gene YBR251W | yeast gene YGR244C | yeast gene YKL170W | yeast gene YMR083W
1.5: yeast gene YBL038W | yeast gene YML120C | yeast gene YOR142W
1.8: yeast gene YCR083W | yeast gene YGR076C | yeast gene YKL016C | yeast gene YML054C | yeast gene YNL073W | yeast gene YOR150W
1.2: yeast gene YBL022C | yeast gene YBR044C | yeast gene YEL039C | yeast gene YJL166W | yeast gene YLR295C | yeast gene YMR203W | yeast gene YNL071W | yeast gene YPL040C | yeast gene YPL215W
